In article PMC8347595, “N-Skatyltryptamines—Dual 5-HT6R/D2R Ligands with Antipsychotic and Procognitive Potential” (Molecules, 2021):
Where two headings read alike, the source gives them in different places.

What was measured:
[1] = target: T1, CYP3A4 (Homo sapiens, UniProt P08684); experiment: CYP3A4 P450-Glo luminescent assay; assay type: in vitro ADME; settings: compared to ketoconazole; 0.01 to 25 µM
T1 construct: purchased Promega (Madison, WI, USA)
Experimental: The experiments were provided using commercially available luminescent CYP3A4 P450-Glo™ and CYP2D6 P450-Glo™ tests purchased from Promega (Madison, WI, USA). The enzymatic reactions were conducted in polystyrene, flat-bottom Nunc™ MicroWell™ 96-well microplates (Thermo Scientific, Waltham, MA, USA). The assays were carried out according to the procedures provided by the manufacturer, as described previously. Compounds were tested in triplicate at the final concentrations in a range from 0.01 to 25 µM for both isoforms of CYP450. The references of CYP3A4 and CYP2D6 inhibitors (ketoconazole and quinidine, respectively) were tested in a range from 0.001 to 10 µM. Tested compounds were incubated in 100 mM Tris-HCl buffer separately with CYP3A4 and CYP2D6 membranes and the NADPH Regeneration System for 30 min at room temperature in triplicate. The bioluminescent signal was measured after the addition of the Luciferin Detection Reagent by using a microplate reader EnSpire PerkinElmer (Waltham, MA, USA). Both reagents (NADPH Regeneration System and Luciferin Detection Reagent) were purchased from Promega (Madison, WI, USA).

[2] = test system: HepG2 cell line; experiment: Hepatotoxicity assay, HepG2 viability; assay type: cell-based; settings: 1 μM, 72 h
Experimental: To estimate the hepatotoxicity of compounds, the hepatoma HepG2 (ATCC® HB-8065TM) cell line was used according to previously described protocols. The CellTiter 96® AQueous Non-Radioactive Cell Proliferation Assay was obtained from Promega (Madison, WI, USA). The compounds were tested in quadruplicate at four concentrations (1–100 µM) for 72 h.

[3] = test system: Male CD1 mice; experiment: Novel object recognition (NOR) test, MK-801-induced memory impairment; assay type: in vivo; settings: i.p., MK-801 0.3 mg/kg
Experimental: Animals. Male CD1 mice (Charles River, Germany) weighing 20–25 g at the time of arrival were used in behavioral experiments. Animals were kept under standard laboratory conditions (12:12 light: dark cycle, 22 ± 2 °C) with free access to food and water. Animal welfare has been regularly controlled by a veterinarian and animal welfare committee. After two weeks of acclimatization and handling, the experiments began. Experimental groups consisted of four to 10 animals, depending on the procedure. Drugs were administered intraperitoneally (i.p.) at a volume of 10 mL/kg. Experimental assessments were performed by an observer who was blinded to the treatment conditions. All procedures were conducted in accordance with the European Communities Council Directive of 22 September 2010 (2010/63/EU) and Polish legislation acts concerning animal experimentation and were approved by the II Local Ethics Committee by the Maj Institute of Pharmacology, Polish Academy of Sciences in Krakow (272/2019).
Drugs. MK-801 was purchased from Tocris Bioscience, Bristol, UK. MK-801 was dissolved in 0.9% NaCl. Compounds 15 and 18 were dissolved in 0.9% NaCl. All compounds were administered intraperitoneally (i.p.) in a volume of 10 mL/kg. Vehicle-treated animals received appropriate solvents. Vehicle was administered to animals in any case when drug administration was omitted (e.g., control or MK-801-treated groups).
This procedure was adapted from Nilsson et al. (2007) and performed as described in a previous paper by Cieslik et al. (2018). Habituation, training, and test trials were performed in a black plastic rectangular arena (40 × 30 × 35 cm) illuminated with a light intensity of 335 lux. During the habituation trial (two consecutive days), each animal was allowed to explore the arena for 10 min. The next day, during the training trial (T1), mice were placed in the arena and presented with two identical objects (red glass cylinder; 6.5 cm in diameter and 4.5 cm high) for 5 min. After 1 h, animals were placed back into the arena for a 5 min test trial, during which one of the previously presented familiar objects was replaced with a novel object (a transparent glass elongated sphere-like object with an orange cap; 5.5 cm in diameter and 8.5 cm high). Time spent exploring (i.e., sniffing or touching) the familiar (Tfamiliar) and novel (Tnovel) objects was measured by a trained observer, and the recognition index [%] was calculated for each mouse [(Tnovel − Tfamiliar)/(Tfamiliar + Tnovel)] × 100. Compounds were administered 30 min before MK-801 (0.3 mg/kg), which was administered 30 min before training trial.

[4] = target: D2R (Homo sapiens, UniProt P14416); experiment: D2R functional assay, antagonist mode (cAMP, HEK293 cells); assay type: cell-based; set-up: expressed in transfected cells
Sequence of D2R (P14416 whole entry): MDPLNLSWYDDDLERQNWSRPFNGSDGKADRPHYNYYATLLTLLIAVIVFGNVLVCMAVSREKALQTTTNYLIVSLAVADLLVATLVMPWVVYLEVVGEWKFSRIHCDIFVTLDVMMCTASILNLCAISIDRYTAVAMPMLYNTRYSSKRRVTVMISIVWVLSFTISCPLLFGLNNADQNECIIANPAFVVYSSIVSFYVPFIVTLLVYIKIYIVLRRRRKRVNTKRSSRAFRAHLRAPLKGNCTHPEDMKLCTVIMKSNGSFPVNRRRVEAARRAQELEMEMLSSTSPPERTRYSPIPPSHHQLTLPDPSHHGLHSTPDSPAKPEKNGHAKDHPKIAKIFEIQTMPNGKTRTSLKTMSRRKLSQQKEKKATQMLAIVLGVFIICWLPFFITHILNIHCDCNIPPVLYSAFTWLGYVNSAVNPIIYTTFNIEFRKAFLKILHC
Experimental: The supernatant was aspirated, and the cell pellet was resuspended in stimulation buffer (1 × HBSS, 5 mM HEPES, 0.5 mM IBMX, 0.1% BSA).
The functional properties of compounds were evaluated using the LANCE Ultra cAMP Detection Kit (PerkinElmer). D2 receptors in HEK293 cells are coupled to Gi subtype and decreased cAMP production. […] Each compound was tested in triplicate at eight concentrations (10^−11–10^−4 M).
For quantification of cAMP levels, cells (5 µL) were incubated with 5 µL mixture of compounds (tested ligand and forskolin with 100 nM quinpirole for antagonist binding mode) for 30 min at room temperature in 384-well white opaque microtiter plate (PerkinElmer). After incubation, the reaction was stopped and cells were lysed by the addition of 10 µL working solution (5 µL Eu-cAMP and 5 µL ULight-anti-cAMP). The assay plate was incubated for 1 h at room temperature. Time-resolved fluorescence resonance energy transfer (TR-FRET) signal was detected by an Infinite M1000 Pro (Tecan) using instrument settings from the LANCE Ultra cAMP Detection Kit manual.

[5] = target: 5-HT6R (Homo sapiens, UniProt P50406); experiment: Radioligand binding assay, [3H]-LSD displacement
Sequence of 5-HT6R (P50406 whole entry): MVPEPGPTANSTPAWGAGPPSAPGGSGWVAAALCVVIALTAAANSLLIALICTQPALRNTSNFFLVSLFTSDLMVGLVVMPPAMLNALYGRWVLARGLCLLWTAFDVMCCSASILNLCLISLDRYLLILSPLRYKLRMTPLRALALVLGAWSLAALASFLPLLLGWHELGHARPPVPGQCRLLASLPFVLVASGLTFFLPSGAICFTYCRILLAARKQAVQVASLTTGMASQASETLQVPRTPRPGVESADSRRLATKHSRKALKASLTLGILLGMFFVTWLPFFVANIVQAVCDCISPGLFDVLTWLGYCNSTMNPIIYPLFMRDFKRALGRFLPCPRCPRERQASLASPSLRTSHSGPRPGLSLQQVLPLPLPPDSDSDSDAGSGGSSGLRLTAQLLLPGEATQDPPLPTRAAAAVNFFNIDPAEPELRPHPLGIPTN

[6] = target: 5-HT7R (Homo sapiens, UniProt P34969); experiment: Radioligand binding assay, [3H]-5-CT displacement
Sequence of 5-HT7R (P34969 1-432): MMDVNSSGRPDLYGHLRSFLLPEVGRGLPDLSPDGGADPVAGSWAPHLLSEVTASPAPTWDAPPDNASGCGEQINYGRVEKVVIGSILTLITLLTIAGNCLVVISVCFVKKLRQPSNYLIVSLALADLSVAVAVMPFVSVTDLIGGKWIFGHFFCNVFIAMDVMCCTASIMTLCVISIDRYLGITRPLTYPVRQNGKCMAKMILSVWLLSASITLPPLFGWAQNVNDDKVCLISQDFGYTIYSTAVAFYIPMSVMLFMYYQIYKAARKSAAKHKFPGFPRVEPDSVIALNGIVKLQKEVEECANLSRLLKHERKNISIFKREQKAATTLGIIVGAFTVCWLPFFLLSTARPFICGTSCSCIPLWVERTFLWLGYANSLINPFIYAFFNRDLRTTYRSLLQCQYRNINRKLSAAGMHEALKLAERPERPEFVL

[7] = target: T2, 5-HT1AR (Homo sapiens, UniProt P08908); experiment: Radioligand binding assay, [3H]-8-OH-DPAT displacement
T2 sequence (P08908 1-422): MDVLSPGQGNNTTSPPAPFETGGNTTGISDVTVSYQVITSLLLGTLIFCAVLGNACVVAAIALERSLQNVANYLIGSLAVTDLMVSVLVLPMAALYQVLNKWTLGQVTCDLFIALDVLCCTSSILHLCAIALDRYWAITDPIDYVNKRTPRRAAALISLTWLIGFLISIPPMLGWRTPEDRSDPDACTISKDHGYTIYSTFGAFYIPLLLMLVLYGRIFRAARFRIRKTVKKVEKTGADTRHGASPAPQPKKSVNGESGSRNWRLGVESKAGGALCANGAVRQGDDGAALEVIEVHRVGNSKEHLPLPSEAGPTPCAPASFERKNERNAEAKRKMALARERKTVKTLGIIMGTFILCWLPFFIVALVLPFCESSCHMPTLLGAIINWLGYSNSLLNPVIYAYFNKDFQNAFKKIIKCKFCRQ

T1 sequence (P08684 whole entry): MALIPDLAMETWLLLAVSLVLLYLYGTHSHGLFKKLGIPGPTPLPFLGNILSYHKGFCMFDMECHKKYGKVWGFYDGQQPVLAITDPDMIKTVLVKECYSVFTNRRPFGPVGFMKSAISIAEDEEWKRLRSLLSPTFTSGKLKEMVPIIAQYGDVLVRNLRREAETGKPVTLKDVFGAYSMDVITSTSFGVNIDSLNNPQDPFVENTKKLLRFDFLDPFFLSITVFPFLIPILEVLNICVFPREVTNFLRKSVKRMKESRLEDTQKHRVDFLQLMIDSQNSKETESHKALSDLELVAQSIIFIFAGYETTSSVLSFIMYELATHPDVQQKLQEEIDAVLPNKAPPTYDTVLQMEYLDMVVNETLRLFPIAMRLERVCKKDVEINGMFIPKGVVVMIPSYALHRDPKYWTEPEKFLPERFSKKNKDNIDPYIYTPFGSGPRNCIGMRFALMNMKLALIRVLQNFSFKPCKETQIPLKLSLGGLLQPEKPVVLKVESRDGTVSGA

Row | Structure (SMILES) | effect on CYP3A4 activity [1] | effect on HepG2 proliferation in words [2] | reversal of memory impairment induced by MK-801 in NOR test ([3]; 0.5 mg/kg) | reversal of memory impairment induced by MK-801 in NOR test ([3]; 1 mg/kg) | Kb ([4]; antagonistic mode, 100 nM quinpirole, read-out: D2 Kb) [nM] | EC50 ([4]; read-out: EC50 (D2 receptor, antagonistic function)) [nM] | Ki ([5]; Ki 5-HT6, Figure 8) [nM] | Ki ([5]; pKi 5-HT6, Table 1) [nM] | Ki [6] [nM] | Ki ([7]; pKi 5-HT1A, Table 1) [nM] | reversal of memory impairment induced by MK-801 in NOR test ([3]; 0.1 mg/kg) | Kb [4] [nM] | Ki [7] [nM]
1 | Brc1ccc2c(CNCCc3c[nH]c4ccccc34)c[nH]c2c1 [Compound 15] | only slightly inhibited | a proliferative effect was observed, but it was not statistically significant | reversed memory impairment | reversed memory impairment | 109 | 109 | 102 | 102 | 4680 | 977 | – | – | –
2 | Brc1cccc2c(CNCCc3c[nH]c4ccccc34)c[nH]c12 [Compound 18] | only slightly inhibited | a proliferative effect was observed, but it was not statistically significant | reversed memory impairment | reversed memory impairment | – | – | 449 | 447 | 1320 | – | reversed memory impairment | 167 | 302
